≈ marks a conversion by molar mass, not a printed value. Where two headings read alike, the source gives them in different places.
Assays:
[1] = Ionisation constants by potentiometric titration; type: physicochemical; conditions: read-out: pKa expérimental
Protocol: Les constantes d'ionisation sont déterminées expérimentalement par titrage potentiométrique suivant les conditions opératoires décrites ci-dessous et évaluées par le logiciel de prédiction ACD/pK DB, Version 5.12.
Conditions opératoires du titrage potentiométrique • Matériel utilisé : (Radiometer-Tacussel) : • titrateur TIM 900 • passeur d'échantillons SAC 90 • logiciel Tim Talk 9 • - Prise d'essai : 10^-4 mole • - Mise en solution : (solubilisation avec passeur d'échantillons) • 5 ml du mélange DMSO 70 / Ethanol 10 / Eau 20 (agitation 3 minutes avec barbotage d'azote) • 10 ml d'une solution de NaCl 0.225M dans eau 80 / DMSO 20 (agitation 3 minutes avec barbotage d'azote) • - Méthode de titrage : • Etalonnage de l'électrode entre pH4 et pH10 • Titrage direct par NaOH 1N ou après ajout d'HCl 1N • Détection d'inflexion avec ajout continu du titrant • vitesse d'addition mini : 1%/min • vitesse d'addition maxi : 1%/min • Flux d'azote à la surface de la solution pendant le titrage • - Calculs : • 2 fonctions polynomiales sont utilisées pour obtenir le pKa dans l'eau en milieu NaCl 0.15M : • pour les fonctions acides : pKaH2O = -0,0208(pKasolvant)^2 + 1,257pKasolvant - 1,6 • pour les fonctions basiques :pKaH2O = -0,0208(pKasolvant)^2 + 1,257pKasolvant - 0,75

[2] = system: Candida albicans; assay: Minimal inhibitory concentration (CMI), Alamar Blue broth method; type: cell-based; conditions: ATCC10231, ATCC #10231, lowest concentration with growth inhibition ≥ 90%, 16 h contact at 37°C
Source text: (§1) La méthode de détermination de l'activité anti-microbienne des composés selon l'invention fait intervenir la mesure de la Concentration Minimale Inhibitrice (CMI) vis-à-vis de 2 bactéries gram- (E. coli et P. aeruginosa), d'une bactérie gram+ (S. aureus) et d'une levure (C. albicans). Cette méthode a été effectuée selon la méthode décrite dans les articles suivants: - Baker C.N., Banerjee S.N. and Tenover F.C. : Evaluation of Alamar colorimetric MIC Method for antimicrobial susceptibility testing of gram-negative bacteria. J. Clin. Microbiol. (1994), 32, 1261-1267; - Baker C.N. and Tenover F.C. : Evaluation of Alamar colorimetric broth microdilution susceptibility testing method for staphylococci and enterococci. J. Clin. Microbiol. (1996), 34, 2654-2659. Les souches bactériennes utilisées au départ sous forme de disques lyophilisés calibrés sont réhydratées en suivant les indications du fournisseur (Fisher Scientific S.A.)
(§2) Les souches sont ensemencées dans du milieu Trypto-caseine-soja. La mise en contact du composé à tester solubilisé dans l'eau, avec les souches en phase de croissance s'effectue en milieu liquide. Après 16 heures de contact du composé avec les bactéries (37°C), de l'Alamar Blue est ajouté comme indicateur métabolique de la viabilité de cellules variées et de bactéries. La réduction de l'indication est proportionnelle à l'activité métabolique des bactéries. A l'issue de l'incubation d'une durée de 2h (sauf pour C. albicans pour laquelle l'incubation est de 4h), l'activité métabolique des bactéries est évaluée par une lecture en absorbance ou en fluorescence. En fluorescence, les lectures sont réalisées à 544nm (Excitation) et à 590nm (Emission). Les composés les plus actifs sont sélectionnés et un effet dose (8 concentrations) est ensuite réalisé comme précédemment. La Concentration Minimale Inhibitrice (C.M.I.) a alors été déterminée comme étant la concentration la plus faible du composé testé pour laquelle était observée une inhibition de croissance de la bactérie ou de la levure ≥ 90%.

[3] = system: Escherichia coli; assay: as above; type: cell-based; conditions: ATCC8739, ATCC #8739, lowest concentration with growth inhibition ≥ 90%, 16 h contact at 37°C, read-out: CMI E.coli
Source text: as §1, §2

[4] = system: Pseudomonas aeruginosa; assay: as above; type: cell-based; conditions: ATCC9027, ATCC #9027, lowest concentration with growth inhibition ≥ 90%, 16 h contact at 37°C, read-out: CMI P.aeruginosa
Source text: as §1, §2

[5] = system: Staphylococcus aureus; assay: as above; type: cell-based; conditions: ATCC6538, ATCC #6538, lowest concentration with growth inhibition ≥ 90%, 16 h contact at 37°C, read-out: CMI S.aureus
Source text: as §1, §2

[6] = system: Aspergillus niger; assay: Challenge test (artificial contamination) in cosmetic supports; type: cell-based; conditions: inoculum about 10^6 germes/gramme, sensitivity threshold 200 UFC
Source text: (§3) La mesure de la Concentration Minimale Inhibitrice (C.M.I.) développée ci-dessus ne peut être utilisée avec fiabilité pour les moisissures; or les moisissures peuvent également poser de graves problèmes dans la conservation des produits cosmétiques. En sachant que l'activité d'un composé diminue lorsqu'il est introduit dans une formule et que la méthode de la CMI se fait après dilution du composé dans l'eau, l'efficacité anti-microbienne des composés de formule (I) a été évaluée par la méthode du Challenge Test ou contamination artificielle après avoir introduit lesdits composés dans des supports cosmétiques (lotion, émulsions huile-dans-eau et eau-dans-huile). La méthode du challenge-test consiste en une contamination artificielle de l'échantillon par des souches microbiennes de collection (bactéries, levures et moisissures) et en une évaluation du nombre de micro-organismes revivifiables sept jours après l'inoculation. Afin de mettre en évidence l'effet d'un composé de formule (I), l'activité anti-microbienne d'une formule cosmétique contenant 0.25% de 4 methyl-pipéridine-1-yl-pyrimidine-2-ylamine a été comparée avec la même formule seule, après inoculation d'environ 10^6 germes/gramme de produit cosmétique.

[7] = system: Candida albicans; assay: as above; type: cell-based; conditions: inoculum about 10^6 germes/gramme, sensitivity threshold 200 UFC
Source text: as §3

[8] = system: Enterococcus faecalis; assay: as above; type: cell-based; conditions: inoculum about 10^6 germes/gramme, sensitivity threshold 200 UFC
Source text: as §3

[9] = system: Escherichia coli; assay: as above; type: cell-based; conditions: inoculum about 10^6 germes/gramme, sensitivity threshold 200 UFC
Source text: as §3

[10] = system: Pseudomonas aeruginosa; assay: as above; type: cell-based; conditions: inoculum about 10^6 germes/gramme, sensitivity threshold 200 UFC
Source text: as §3

[11] = water, nacl 0.15m, dans l'eau, NaCl 0,15M, reference molecules entered in the database used for the prediction
[12] = function NH^+/N (pyrimidine motif), pKa in water, NaCl 0.15M, obtained from the solvent pKa by a polynomial function
[13] = Emulsion eau dans huile + 0.250% compound
[14] = Emulsion démaquillante huile dans eau + 0.25% compound

SMILES	MIC [2] [µg/mL]	MIC [3] [µg/mL]	MIC [4] [µg/mL]	MIC [5] [µg/mL]	also measured
Nc1ncccn1 [2-aminopyrimidine, reference compound]	–	–	–	–	pKa [1, 11]: 3.9
Nc1ccncn1 [4-aminopyrimidine, reference compound]	–	–	–	–	pKa [1, 11]: 6
Cc1cc(NCc2ccco2)nc(N)n1 [Comparatif (DE 3717480), reference compound]	> 10000	> 10000	> 10000	626 (≈ 3.06 mM)	–
CO[Si](C)(C)CCCCNc1cc(C)nc(N)n1 [Composé A, 4-N-[4-(méthoxy-dimethylsilyl)-butyl]-6-methyl-pyrimidine - 2,4-diamine]	156 (≈ 0.581 mM)	78 (≈ 0.291 mM)	156 (≈ 0.581 mM)	78 (≈ 0.291 mM)	–
Cc1cc(NCC(C)(C)N)nc(N)n1 [Composé G, N4-(2-amino-2-methyl-propyl)-6-methyl-pyrimidine-2,4-diamine]	2500 (≈ 12.8 mM)	2500 (≈ 12.8 mM)	2500 (≈ 12.8 mM)	5000 (≈ 25.6 mM)	–
Cc1cc(NCc2ccc(C)o2)nc(N)n1 [Composé I, 4-N-(5-methyl-furan-2-ylmethyl)---6-methyl-pyrimidine – 2,4-diamine]	625 (≈ 2.86 mM)	1250 (≈ 5.73 mM)	2500 (≈ 11.5 mM)	625 (≈ 2.86 mM)	–
CCCCCCNc1cc(C)nc(N)n1 [Composé N, 4-N-Hexyl-6-methyl-pyrimidine-2,4-diamine]	160 (≈ 0.768 mM)	310 (≈ 1.49 mM)	2500 (≈ 12 mM)	630 (≈ 3.02 mM)	pKa [1, 12]: 8.35
COc1cccc(Nc2cc(C)nc(N)n2)c1 [reference compound]	1250 (≈ 5.43 mM)	> 5000	> 5000	> 5000	–

More lines, main results first:

MIC [2] [µg/mL]	MIC [3] [µg/mL]	MIC [4] [µg/mL]	MIC [5] [µg/mL]	SMILES	also measured
> 5000	> 5000	> 5000	> 5000	Nc1nc(N2CCCCC2)cc(C(F)(F)F)n1 [Comparatif (DE 19917784), reference compound]	–
5000 (≈ 22.6 mM)	1250 (≈ 5.65 mM)	250 (≈ 1.13 mM)	2500 (≈ 11.3 mM)	Cc1cc(NCC2CCNCC2)nc(N)n1 [Composé B, 4-N-[4-piperidinylmethyl]-6-methyl-pyrimidine-2,4-diamine]	–
2500 (≈ 12.1 mM)	5000 (≈ 24.1 mM)	5000 (≈ 24.1 mM)	2500 (≈ 12.1 mM)	Cc1cc(NC[C@@H]2CCCN2)nc(N)n1 [Composé C]	–
–	5000 (≈ 15.7 mM)	> 5000	5000 (≈ 15.7 mM)	Cc1cc(N2CCCN(CCCN3CCCC3)CC2)nc(N)n1 [Composé D, 4-methyl-6-[4-(3-pyrrolidin-1-yl-propyl)-[1,4]diazepan-1-yl]-pyrimidin-2-ylamine]	–
1250 (≈ 4.59 mM)	625 (≈ 2.3 mM)	5000 (≈ 18.4 mM)	1250 (≈ 4.59 mM)	Cc1cc(N2CCc3cc(O)c(O)cc3C2)nc(N)n1 [Composé E, 2-(2-amino-6-methyl-pyrimidin-4-yl)-1,2,3,4-tetrahydro-isoquinoline-6,7-diol]	–
5000 (≈ 18.9 mM)	2500 (≈ 9.46 mM)	> 5000	5000 (≈ 18.9 mM)	Cc1cc(N2CCN(CCN(C)C)CC2)nc(N)n1 [Composé F, 4-[4-(2-dimethylamino-ethyl)-piperazin-1-yl]-6-methyl-pyrimidin-2-ylamine]	–
2500 (≈ 10.6 mM)	2500 (≈ 10.6 mM)	5000 (≈ 21.2 mM)	1250 (≈ 5.29 mM)	Cc1cc(NCCN2CCNCC2)nc(N)n1 [Composé H, 4-N-(2-piperazin-1-yl-ethyl)-6-methyl-pyrimidine – 2,4-diamine]	–
5000 (≈ 17.2 mM)	2500 (≈ 8.61 mM)	> 5000	5000 (≈ 17.2 mM)	Cc1cc(N2CCN(C3CCN(C)CC3)CC2)nc(N)n1 [Composé J, 4-methyl-6-[4-(1-methyl-piperidin-4-yl)-piperazin-1-yl]-pyrimidin-2-ylamine]	–
625 (≈ 2.3 mM)	2500 (≈ 9.21 mM)	> 5000	5000 (≈ 18.4 mM)	Cc1cc(N2CCN(c3ncccn3)CC2)nc(N)n1 [Composé K, 4-methyl-6-(4-pyrimidin-2-yl-piperazin-1-yl)-pyrimidin-2-ylamine]	–
1250 (≈ 5.01 mM)	2500 (≈ 10 mM)	2500 (≈ 10 mM)	2500 (≈ 10 mM)	Cc1cc(NCC2CCCC(CN)C2)nc(N)n1 (stereo not drawn) [Composé L, 4-N-(3-aminomethyl-cyclohexylmethyl)-6-methyl-pyrimidine-2,4-diamine]	–
625 (≈ 3.25 mM)	5000 (≈ 26 mM)	5000 (≈ 26 mM)	5000 (≈ 26 mM)	Cc1cc(N2CCCCC2)nc(N)n1 [Composé M, 4-methyl-6-pipéridine-1-yl-pyrimidine-2-ylamine]	pKa [1, 12]: 8.35; Nombre d'UFC / gramme de produit après 7 jours de contact germes / produit [6, 13]: 400 UFC / gramme de produit; Nombre d'UFC / gramme de produit après 7 jours de contact germes / produit ([6]; Lotion + 0.25% compound): 400 UFC / gramme de produit; Nombre d'UFC / gramme de produit après 7 jours de contact germes / produit [7, 14]: <200 UFC / gramme de produit; Nombre d'UFC / gramme de produit après 7 jours de contact germes / produit [7, 13]: <200 UFC / gramme de produit; Nombre d'UFC / gramme de produit après 7 jours de contact germes / produit ([7]; Lotion + 0.25% compound): <200 UFC / gramme de produit; Nombre d'UFC / gramme de produit après 7 jours de contact germes / produit [8, 14]: <200 UFC / gramme de produit; Nombre d'UFC / gramme de produit après 7 jours de contact germes / produit ([8]; Lotion + 0.25% compound): 400 UFC / gramme de produit; Nombre d'UFC / gramme de produit après 7 jours de contact germes / produit [9, 14]: <200^2 UFC / gramme de produit; Nombre d'UFC / gramme de produit après 7 jours de contact germes / produit [9, 13]: <200^2 UFC / gramme de produit; Nombre d'UFC / gramme de produit après 7 jours de contact germes / produit ([9]; Lotion + 0.25% compound): <200^2 UFC / gramme de produit; Nombre d'UFC / gramme de produit après 7 jours de contact germes / produit [10, 14]: <200 UFC / gramme de produit; Nombre d'UFC / gramme de produit après 7 jours de contact germes / produit [10, 13]: <200 UFC / gramme de produit; Nombre d'UFC / gramme de produit après 7 jours de contact germes / produit ([10]; Lotion + 0.25% compound): <200 UFC / gramme de produit
